According to ChEMBL document CHEMBL4732193, “Design, synthesis, and anti-tumor activities of novel Brevinin-1BYa peptidomimetics” (Bioorg Med Chem Lett, 2021):
pIC50: −log10 of the molar value. Starred links: 1 amine or outer side, 2 acyl side, 3 side chain; linkers in the order of their positions; H or OH if unused. Positions of bridges follow the written chain, without caps; N, C: chain ends. Non-standard residues stand in square brackets, D forms with d. Residues, ends and D or L forms follow the SMILES beside them. Triazole bridges read from a SMILES are 1,4-linked. *: point of attachment. βGlcNAc = CC(=O)N[C@@H]1[C@@H](O)[C@H](O)[C@@H](CO)O[C@H]1*; Abu(4-yl) = O=C([C@H](CC[*:3])N[*:1])[*:2]; Dap(N3) = [N-]=[N+]=NC[C@H](N)C(=O)O; Pra = C#CC[C@H](N)C(=O)O; Dap = NC[C@H](N)C(=O)O

What was measured:
[1] = Hemolytic activity in rabbit erythrocytes assessed as hemoglobin release; assay type: ADME, cell-based, Oryctolagus cuniculus, Erythrocyte
[2] = tested on: Huh-7; assay: Anticancer activity against human Huh-7 cells assessed as cell growth inhibition by CCK8 assay; assay type: functional, cell-based
[3] = tested on: LNCaP C4-2B; assay: Anticancer activity against human LNCaP C4-2B cells assessed as cell growth inhibition by CCK8 assay; assay type: functional, cell-based
[4] = Stability of the compound in aqueous DTT solution measured after 48 hrs; assay type: physicochemical; conditions: buffer
[5] = tested on: alpha chymotrypsin; assay: Stability of the compound assessed as alpha chymotrypsin (unknown origin)-mediated proteolysis by measuring degradation half life measured for 24 hrs; assay type: ADME, Homo sapiens
[6] = tested on: A549; assay: Anticancer activity against human A549 cells assessed as cell growth inhibition by CCK8 assay; assay type: functional, cell-based
[7] = Stability of the compound in aqueous DTT solution assessed as degradation half life measured for 48 hrs; assay type: physicochemical
[8] = Ratio of test compound t1/2 to Brevinin-1BYa t1/2 for alpha chymotrypsin (unknown origin)-mediated proteolysis measured for 24 hrs; assay type: ADME; conditions: human
[9] = Helicity of the compound in TFE aqueous solution by CD spectroscopy; assay type: physicochemical; conditions: buffer
[10] = tested on: Huh-7; assay: Potency index, ratio of Brevinin-1BYa IC50 to test compound IC50 for human Huh-7 cells by CCK8 assay; assay type: functional
[11] = tested on: LNCaP C4-2B; assay: Potency index, ratio of Brevinin-1BYa IC50 to test compound IC50 for human LNCaP C4-2B cells by CCK8 assay; assay type: functional
[12] = Helicity of the compound in TFE aqueous solution by CD spectroscopy relative to Brevinin-1BYa; assay type: physicochemical; conditions: buffer

Row | Structure (SMILES) | pIC50 [2] | pIC50 [3] | Stabilty [4] | half-life [5] [h] | pIC50 [6] | half-life [7] [h] | Ratio [8] | Activity [9] [%] | fold change (FC) [12] | HC50 [1] [µM] | Ratio IC50 [10] | Ratio IC50 [11]
1 | CC[C@H](C)[C@H](NC(=O)[C@H](CC(C)C)NC(=O)[C@H](C)NC(=O)[C@H](CO)NC(=O)[C@H](CC(C)C)NC(=O)[C@H](C)NC(=O)[C@H](C)NC(=O)[C@H](CCCCN)NC(=O)[C@H](Cc1ccccc1)NC(=O)CNC(=O)[C@@H]1CCCN1C(=O)[C@H](CCCCN)NC(=O)[C@H](CC(C)C)NC(=O)[C@H](Cc1ccccc1)NC(=O)[C@@H]1CSSC[C@H](N)C(=O)N[C@@H](CCCCN)C(=O)N[C@@H](CCCCN)C(=O)N[C@@H]([C@@H](C)O[C@@H]2O[C@H](CO)[C@@H](O)[C@H](O)[C@H]2NC(C)=O)C(=O)N[C@@H](C(C)C)C(=O)N[C@@H](CC(C)C)C(=O)N1)C(=O)N1CCC[C@H]1C(=O)N[C@@H](CC(C)C)C(=O)N[C@@H](Cc1ccccc1)C(=O)O (H-CKKT(βGlcNAc)VLCFLKPGFKAALSALIPLF-OH; disulfide 1-7) | 4.63 | 4.69 | Unstable | 4.33 | 4.68 | 3.32 | 1.67 |  |  | > 100 |  | 
2 | CC[C@H](C)[C@H](NC(=O)[C@H](CC(C)C)NC(=O)[C@H](C)NC(=O)[C@H](CO[C@@H]1O[C@H](CO)[C@@H](O)[C@H](O)[C@H]1NC(C)=O)NC(=O)[C@H](CC(C)C)NC(=O)[C@H](C)NC(=O)[C@H](C)NC(=O)[C@H](CCCCN)NC(=O)[C@H](Cc1ccccc1)NC(=O)CNC(=O)[C@@H]1CCCN1C(=O)[C@H](CCCCN)NC(=O)[C@H](CC(C)C)NC(=O)[C@H](Cc1ccccc1)NC(=O)[C@@H]1CSSC[C@H](N)C(=O)N[C@@H](CCCCN)C(=O)N[C@@H](CCCCN)C(=O)N[C@@H]([C@@H](C)O)C(=O)N[C@@H](C(C)C)C(=O)N[C@@H](CC(C)C)C(=O)N1)C(=O)N1CCC[C@H]1C(=O)N[C@@H](CC(C)C)C(=O)N[C@@H](Cc1ccccc1)C(=O)O (H-CKKTVLCFLKPGFKAALS(βGlcNAc)ALIPLF-OH; disulfide 1-7) | 4.40 | 4.73 | Unstable | 4.32 | 4.49 | 3.31 | 1.66 |  |  | > 100 |  | 
3 | CC[C@H](C)[C@H](NC(=O)[C@H](CC(C)C)NC(=O)[C@H](C)NC(=O)[C@H](CO)NC(=O)[C@H](CC(C)C)NC(=O)[C@H](C)NC(=O)[C@H](C)NC(=O)[C@H](CCCCN)NC(=O)[C@H](Cc1ccccc1)NC(=O)CNC(=O)[C@@H]1CCCN1C(=O)[C@H](CCCCN)NC(=O)[C@H](CC(C)C)NC(=O)[C@H](Cc1ccccc1)NC(=O)[C@@H]1CNC(=O)C[C@H](N)C(=O)N[C@@H](CCCCN)C(=O)N[C@@H](CCCCN)C(=O)N[C@@H]([C@@H](C)O)C(=O)N[C@@H](C(C)C)C(=O)N[C@@H](CC(C)C)C(=O)N1)C(=O)N1CCC[C@H]1C(=O)N[C@@H](CC(C)C)C(=O)N[C@@H](Cc1ccccc1)C(=O)O (H-DKKTVL[Dap]FLKPGFKAALSALIPLF-OH; lactam 1-7) | 4.78 | 4.78 | Stable | 1.81 | 4.77 | > 12 |  | 26.34 |  | > 100 |  | 

Molecules with a higher pIC50 [2], results first:

Row | pIC50 [2] | pIC50 [3] | Stabilty [4] | half-life [5] [h] | pIC50 [6] | half-life [7] [h] | Ratio [8] | Activity [9] [%] | fold change (FC) [12] | Structure (SMILES) | HC50 [1] [µM] | Ratio IC50 [10] | Ratio IC50 [11]
4 | 4.83 | 4.86 | Unstable | 1.62 | 5.03 | 3.35 |  | 22.57 |  | CC[C@H](C)[C@H](NC(=O)[C@H](CC(C)C)NC(=O)[C@H](C)NC(=O)[C@H](CO)NC(=O)[C@H](CC(C)C)NC(=O)[C@H](C)NC(=O)[C@H](C)NC(=O)[C@H](CCCCN)NC(=O)[C@H](Cc1ccccc1)NC(=O)CNC(=O)[C@@H]1CCCN1C(=O)[C@H](CCCCN)NC(=O)[C@H](CC(C)C)NC(=O)[C@H](Cc1ccccc1)NC(=O)[C@@H]1CSSC[C@H](N)C(=O)N[C@@H](CCCCN)C(=O)N[C@@H](CCCCN)C(=O)N[C@@H]([C@@H](C)O)C(=O)N[C@@H](C(C)C)C(=O)N[C@@H](CC(C)C)C(=O)N1)C(=O)N1CCC[C@H]1C(=O)N[C@@H](CC(C)C)C(=O)N[C@@H](Cc1ccccc1)C(=O)O (H-CKKTVLCFLKPGFKAALSALIPLF-OH; disulfide 1-7) | 94.4 |  | 
5 | 4.97 | 5.03 | Stable | 2.51 | 4.95 | > 12 |  | 83.65 | 2.7 | CC[C@H](C)[C@H](NC(=O)[C@H](CC(C)C)NC(=O)[C@H](C)NC(=O)[C@H](CO)NC(=O)[C@H](CC(C)C)NC(=O)[C@H](C)NC(=O)[C@H](C)NC(=O)[C@H](CCCCN)NC(=O)[C@H](Cc1ccccc1)NC(=O)CNC(=O)[C@@H]1CCCN1C(=O)[C@H](CCCCN)NC(=O)[C@H](CC(C)C)NC(=O)[C@H](Cc1ccccc1)NC(=O)[C@@H]1CCSC[C@H](N)C(=O)N[C@@H](CCCCN)C(=O)N[C@@H](CCCCN)C(=O)N[C@@H]([C@@H](C)O)C(=O)N[C@@H](C(C)C)C(=O)N[C@@H](CC(C)C)C(=O)N1)C(=O)N1CCC[C@H]1C(=O)N[C@@H](CC(C)C)C(=O)N[C@@H](Cc1ccccc1)C(=O)O (H-CKKTVL[Abu(4-yl)]FLKPGFKAALSALIPLF-OH; thioether 1-7) | 70.4 | 1.38 | 1.5
6 | 4.95 | 4.90 | Stable | 2.93 | 4.66 | > 12 |  |  |  | CC[C@H](C)[C@H](NC(=O)[C@H](CC(C)C)NC(=O)[C@H](C)NC(=O)[C@H](CO)NC(=O)[C@H](CC(C)C)NC(=O)[C@H](C)NC(=O)[C@H](C)NC(=O)[C@H](CCCCN)NC(=O)[C@H](Cc1ccccc1)NC(=O)CNC(=O)[C@@H]1CCCN1C(=O)[C@H](CCCCN)NC(=O)[C@H](CC(C)C)NC(=O)[C@H](Cc1ccccc1)NC(=O)[C@@H]1Cn2cc(nn2)C[C@H](N)C(=O)N[C@@H](CCCCN)C(=O)N[C@@H](CCCCN)C(=O)N[C@@H]([C@@H](C)O)C(=O)N[C@@H](C(C)C)C(=O)N[C@@H](CC(C)C)C(=O)N1)C(=O)N1CCC[C@H]1C(=O)N[C@@H](CC(C)C)C(=O)N[C@@H](Cc1ccccc1)C(=O)O (H-[Pra]KKTVL[Dap(N3)]FLKPGFKAALSALIPLF-OH; triazole 1-7) | 70.4 |  | 
